The source of these data is patent US7951921B2, “Multivalent carriers of bi-specific antibodies” (Immunomedics, Inc., priority 2003, dated 2011).

Primed or numbered codes have the meaning given here. DTPA′ = diethylenetriaminepentaacetic acid Where only a bound is given, the exact number is not on record here.

The nature of data set [1]: Stability of IMP 246 and its complex in fresh mouse serum, size exclusion HPLC. It counts as in vitro ADME. The settings on record: 37° C. As to the method:
[…] A 10 μL aliquot was removed and mixed with 5 μL of 3.2 mg/mL 14IgG^(I253A)-(734scFv)2 and diluted with 40 μL water. A 10 μL aliquot of the diluted mixture was then examined by size exclusion HPLC.
A 4 μL aliquot of the labeled peptide solution was mixed with 10 μL of the 3.2 mg/mL hMN-14 IgG^(I253A)-(734scFv)2 and diluted in 400 μL of fresh mouse serum. The serum sample was incubated at 37° C. for 16 hr and then analyzed by size exclusion HPLC.
Three broad peaks comprised about 20%, 41% and 37% of the area under the curve of the HPLC tracing.
(In general: In gel filtration, larger molecules generally elute earlier.)

Data set [2] has as its system hMN-14IgG^(I253A)-(734scFv)2. The experiment in a line: Stoichiometry of targetable complexes, In-111 IMP 246 mixed with bsAb, size exclusion HPLC. Type of data set: binding. The settings on record: 1:10 (IMP 246:bsAb) mole ratio; peak at 8.5 min. The procedure: (§1) This Example describes experiments designed to determine the stoichiometry of different species of targetable complexes that arise when the targetable divalent construct IMP 246 is mixed with bsAbs hMN-14IgG^(I253A)-(734scFv)2, and hMN-14IgG-(734scFv)2.
(§2) The peptide IMP 246 was dissolved in 100 mL of a solution which contained 0.418 g citric acid and 10.06 g of HPCD buffered at pH 4.3. The solution was filter sterilized through a 0.22 ? m Millex GV filters in 1 mL aliquots into vials that were immediately frozen and lyophilized.
(§3) The IMP 246 was labeled with In-111 as follows. The In-111 was diluted with 0.5 mL water and added to a lyophilized IMP 246 kit. The solution was allowed to incubate at room temperature for 10 min. A 1.5 mL aliquot of a solution containing […] in 0.5 M NaOAc buffer pH 7.17 was then added to the kit.
(§4) The In-111-labelled IMP 246 was mixed with bsAb in a 1:10 (IMP 246:bsAb) mole ratio and then examined by size exclusion HPLC. When mixed with the mutant bsAb, i.e., hMN-14IgG^(I253A)-(734scFv)2, about 90% of the In-111 label was found at a clean sharp peak at 8.5 min (FIG. 8A). When mixed with hMN-14IgG-(734scFv)2, the peak was somewhat broader, comprised about 83% of the In-111 label and was found at 7.5 min (FIG. 8B). In contrast, the antibody:peptide complexes formed when IMP 192 was used were found at 9.5 min (FIG. 7).

In the next data set the test system is hMN-14IgG-(734scFv)2. The data set is described as above. Type of data set: binding. As to conditions: 1:10 (IMP 246:bsAb) mole ratio; peak at 7.5 min. As to the method: as §1, §2, §3, §4
A further data set has as its system Raji cells. Nature of the data set: Apoptosis of Raji cells after cross-linking of bound hA20IgG-(734scFv)2. It counts as cell-based. The settings on record: Raji cells incubated with hA20IgG-(734scFv)2, 3 days, 37 degrees C. As to the method:
Raji cells in culture are incubated with hA20IgG-(734scFv)2. To one set of wells is added IMP-246 to cross-link molecules of hA20IgG-(734scFv)2 bound to CD20 on the surface of the Raji cells. A second set of wells to which IMP-246 is not added serve as controls, and both sets of wells incubated at 37 degrees C.
An average of 5 molecules IMP-222 are conjugated to human serum albumin (hAlb-222). The experiment described in the paragraph above is repeated, but hAb-222 is used to cross-link molecules of hA20IgG-(734scFv)2 bound to CD20 on the surface of the Raji cells, in place of IMP-246.

On to “[Ac-Cys-Lys(DTPA)-Tyr-Lys(DTPA)-NH2]2 (Ac-CK(DTPA′)YK(DTPA′)-NH2; also: disulfide-linked homodimer of two chains, disulfide at 1, other end not in the chain) [IMP 246]”, for which the “area under the curve of HPLC tracing in distinct peak at predicted position” value in data set [1] (in presence of bi-specific antibody, mouse serum, 16 hr) is listed as ≥ 90%. Further, the “stability in mouse serum” value in data set [1] (peptide alone, 16 hours) is “unstable”. Further, the “In-111 label found in complex peak” value in data set [2] is recorded as “about 90%”; with hMN-14IgG-(734scFv)2 it was “about 83%”. Moreover, the apoptosis entry with Raji cells is reported as “extensive apoptosis”.
